Experiments:
[1] = target: CDK7/Cyclin H/MNAT1 (Homo sapiens, UniProt P50613); assay: Inhibition of CDK7/Cyclin H/MNAT1 kinase activity (ADP-Glo); format: biochemical; conditions: mean value from several measurements; read-out: IC50 CDK7/Cyclin H/MNAT
Protocol: (§1) Measurements were carried out in a 5 μl reaction volume using a 384-well plate (Corning Inc., order no. 4513). The analyzed substances were titrated from 50 μM in increments of 4 at 11 concentration points in a normal strength kinase buffer A (Thermo Fisher Scientific Inc, cat. no. PV3189) supplemented with DTT (Sigma, orde. no. 646563-10X.5ML) and prepared with water (Panreac, order no. 701074). Kinase was diluted in an analogous buffer, mixed with test compounds in plate wells and preincubated for 10 minutes at 25° C. Following incubation, a mixture of reaction substrate (CDKtide (SignalChem, order no. C06-58) or Histone H1 (SignalChem, order no. H10-54N) or PDKtide (SignalChem, order no. P10-58) and ATP (SignalChem, order no. V915B) prepared on a normal strength kinase buffer A was added. 1% solution of dimethyl sulfoxide (DMSO) (Sigma-Aldrich, order no. D2438) in the reaction volume was used as a negative control. The final concentrations of all reaction components are shown in Table 5. The plate was centrifuged at 400 rcf (Eppendorf, 5804 R) for 1 minute and incubated for 40-60 minutes at 25° C. The amount of ATP consumed in the kinase reaction was then measured using the ADP-Glo™ detection system. Luminescence signal was measured using Spark 20M tablet multifunction reader (Tecan Group Ltd, Switzerland). IC50 value was calculated using Magellan 7.2 (Tecan Group Ltd, Switzerland) by approximating experimental points by four-parameter model with the optimization by Levenberg-Marquardt:
(§2) [formula] • where A is the upper asymptote; D is the lower asymptote; C is IC50, half-maximal inhibitory concentration of kinase, nM; B is the curvature (slope).

[2] = target: CDK2/Cyclin A (Homo sapiens, UniProt P24941); assay: Inhibition of CDK2/Cyclin A kinase activity (ADP-Glo); format: biochemical; conditions: mean value from several measurements; read-out: IC50 CDK2/Cyclin A
Protocol: as §1, §2

[3] = target: CDK9/Cyclin K (Homo sapiens, UniProt P50750); assay: Inhibition of CDK9/Cyclin K kinase activity (ADP-Glo); format: biochemical; conditions: mean value from several measurements; read-out: IC50 CDK9/Cyclin K
Chain of CDK9/Cyclin K (P50750 whole entry): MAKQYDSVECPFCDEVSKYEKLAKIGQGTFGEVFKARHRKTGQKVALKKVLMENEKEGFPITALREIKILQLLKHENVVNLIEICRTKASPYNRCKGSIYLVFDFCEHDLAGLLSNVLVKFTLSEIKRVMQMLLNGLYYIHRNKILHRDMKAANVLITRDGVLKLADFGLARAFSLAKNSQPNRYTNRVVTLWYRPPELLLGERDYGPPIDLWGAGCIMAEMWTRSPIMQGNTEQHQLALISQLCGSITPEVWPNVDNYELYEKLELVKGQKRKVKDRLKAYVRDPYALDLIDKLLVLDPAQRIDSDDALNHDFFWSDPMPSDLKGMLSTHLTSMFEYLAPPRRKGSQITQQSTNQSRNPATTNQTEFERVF
Chain of CDK9/Cyclin K (O75909 whole entry partner): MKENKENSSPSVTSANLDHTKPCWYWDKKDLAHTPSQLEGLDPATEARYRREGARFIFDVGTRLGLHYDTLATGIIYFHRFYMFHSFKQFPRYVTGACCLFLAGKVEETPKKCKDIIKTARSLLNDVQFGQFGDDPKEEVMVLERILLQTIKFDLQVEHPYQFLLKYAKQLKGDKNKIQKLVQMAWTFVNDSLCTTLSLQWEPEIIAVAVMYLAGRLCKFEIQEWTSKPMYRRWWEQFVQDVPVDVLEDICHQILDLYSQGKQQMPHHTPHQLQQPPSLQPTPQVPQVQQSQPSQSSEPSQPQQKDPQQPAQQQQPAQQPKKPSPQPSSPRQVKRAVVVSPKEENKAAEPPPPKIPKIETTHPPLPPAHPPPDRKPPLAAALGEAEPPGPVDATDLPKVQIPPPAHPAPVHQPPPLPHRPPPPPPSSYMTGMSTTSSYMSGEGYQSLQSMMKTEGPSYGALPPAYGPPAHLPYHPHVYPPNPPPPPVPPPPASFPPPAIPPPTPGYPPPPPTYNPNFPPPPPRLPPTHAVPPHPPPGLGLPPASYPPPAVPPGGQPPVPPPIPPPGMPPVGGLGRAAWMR
Protocol: as §1, §2

[4] = test system: MDA-MB-468 (triple negative breast cancer); assay: Antiproliferative assay on MDA-MB-468 cells (AlamarBlue, 96 h); format: cell-based; conditions: Homo sapiens, mean value from several measurements
Protocol: The antiproliferative activity of CDK7 inhibitors according to the present invention was evaluated in a cell test using continuous cell cultures: MDA-MB-468 (triple negative breast cancer, ATCC® HTB-132™) and NCl-H82 (small cell lung cancer, ATCC® HTB-175™) using a viable AlamarBlue dye (Thermo Fisher Scientific Inc, order no. DAL1100). The cells were grown in DMEM (PanEco, order no. C330π) and RPMI-1640 (PanEco, order no. C330π), respectively. The basal growth medium was enriched with L-glutamine at a concentration of 2 mM (PanEco, order no. Φ032) and 10% fetal bovine serum (Gibco, order no. 16140-071). The night before measurement, MDA-MB-468 adherent cells were detached from plastic with a solution of trypsin-EDTA (PanEco, order no. Π039π), the solution was then inactivated by a DMEM complete medium, centrifuged at 1000 RPM (Eppendorf, 5804 R), a suspension of cells was prepared in a DMEM complete medium, introduced into 96-well culture plates (Corning Inc, order no. 3599) at 8×10^3 cells in 100 μl of medium per well. The next day, test compounds were dissolved in DMSO and diluted with a DMEM complete medium to a final concentration ranging from 50 μM to 10 pM. Diluted compounds in a volume of 50 μl were introduced into the plate wells with cells in triplicates (the final concentration of DMSO was no more than 1%) and incubated at 37° C. in an incubator with 5% CO2 for 96 hours. NCl-H82 suspension cell line was prepared on the day of the analysis. 10×10^3 cells in 100 μl of an RPMI-1640 complete medium were added to each well of a 96-well plate. The procedure for sample dilution is as described above. Cells with test compounds were incubated at 37° C. in an incubator with 5% CO2 for 120 hours. Following incubation, […] of AlamarBlue reagent (Thermo Fisher Scientific Inc., order no. DAL1100) was added to the wells, the contents of the plates were stirred in an orbital shaker (Biosan, Latvia), then further incubated for 5.5-6 hours at 37° C. in an incubator with 5% CO2. The number of viable cells was detected using the Infinite M200Pro microplate spectrophotometer (Tecan Group Ltd, Switzerland) by way of measuring a fluorescent signal at an excitation wavelength (λEx) of 540 nm and an emission wavelength (λEm) of 590 nm.
IC50 value was calculated using the Magellan software (Tecan Group Ltd, Switzerland) by approximating experimental points by four-parameter model with the optimization by Levenberg-Marquardt: […]

[5] = General cytotoxicity on primary differentiated HepaRG cells (72 h); format: cell-based; conditions: human, general toxicity, mean value from several measurements
Text: General cytotoxicity of CDK7 inhibitors according to the present invention was investigated using primary differentiated HepaRG cells (Biopredic Int, order no. HPR101). A week before the measurement, the cells were thawed and maintained in Basal hepatic cell medium (Biopredic Int, order no. MIL700079) supplemented with HepaRG maintenance/metabolism medium supplement with antibiotics (Biopredic Int, order no. ADD620C). The medium in vials with cells was changed every 2-3 days. The night before the test, the cells were plated in wells of 96-well plates (Corning Inc., order no. 3599) at 25×10^3 cells in 100 μl of medium per well. The next day, test compounds were introduced into plate wells with cells, untitrated at a concentration ranging from 200 μM to 0.2 nM, and incubated for 72 hours. Cell viability was assessed as described above.

Chain of CDK7/Cyclin H/MNAT1 (P50613 whole entry): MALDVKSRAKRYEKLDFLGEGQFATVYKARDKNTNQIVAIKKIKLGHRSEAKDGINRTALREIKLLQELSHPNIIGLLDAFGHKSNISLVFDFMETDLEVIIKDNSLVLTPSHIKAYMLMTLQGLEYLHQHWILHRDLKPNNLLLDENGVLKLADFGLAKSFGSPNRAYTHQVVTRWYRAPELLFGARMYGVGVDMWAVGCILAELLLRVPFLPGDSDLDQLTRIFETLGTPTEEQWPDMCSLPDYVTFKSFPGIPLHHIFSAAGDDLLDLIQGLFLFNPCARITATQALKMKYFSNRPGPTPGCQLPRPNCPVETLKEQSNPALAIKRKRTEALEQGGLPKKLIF
Chain of CDK7/Cyclin H/MNAT1 (P51946 whole entry partner): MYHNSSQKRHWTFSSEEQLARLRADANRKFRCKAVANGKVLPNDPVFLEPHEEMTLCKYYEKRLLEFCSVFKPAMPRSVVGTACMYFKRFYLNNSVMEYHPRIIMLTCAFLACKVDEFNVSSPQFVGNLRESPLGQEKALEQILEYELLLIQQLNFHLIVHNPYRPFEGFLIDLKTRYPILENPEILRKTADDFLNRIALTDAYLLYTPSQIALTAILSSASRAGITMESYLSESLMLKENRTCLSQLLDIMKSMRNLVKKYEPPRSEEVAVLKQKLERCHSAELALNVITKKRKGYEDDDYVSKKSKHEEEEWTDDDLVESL
Chain of CDK7/Cyclin H/MNAT1 (P51948 whole entry partner): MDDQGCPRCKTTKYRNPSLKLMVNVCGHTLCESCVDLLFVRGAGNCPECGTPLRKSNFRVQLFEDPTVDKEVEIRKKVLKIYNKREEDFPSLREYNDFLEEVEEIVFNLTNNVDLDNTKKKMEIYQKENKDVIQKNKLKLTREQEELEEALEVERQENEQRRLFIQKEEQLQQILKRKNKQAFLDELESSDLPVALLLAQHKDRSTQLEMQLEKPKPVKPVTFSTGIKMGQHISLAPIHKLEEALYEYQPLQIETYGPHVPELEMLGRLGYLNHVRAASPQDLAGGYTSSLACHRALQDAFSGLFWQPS

Row | Compound | IC50 [1] [µM] | IC50 [2] [µM] | IC50 [3] [µM] | IC50 [4] [µM] | CC50 at 72 h [5] [µM]
1 | O=C(c1ccccc1)c1cc(-c2nc(N[C@H]3CCCNC3)ncc2C(F)(F)F)c[nH]1 [CDK7_535, 4-(5-benzoyl-1H-pyrrol-3-yl)-N-[(3S)-piperidin-3-yl]-5-(trifluoromethyl) pyrimidin-2-amine] | 0.005 to 0.05 | > 0.2 | 0.05 to 0.2 | 0.1 to 1 | > 2
2 | NC(=O)c1cc(-c2nc(N[C@H]3CCCNC3)ncc2C(F)(F)F)c[nH]1 [CDK7_537, 4-(2-{[(3S)-piperidin-3-yl]amino}-5-(trifluoromethyl)pyrimidin-4-yl)-1H-pyrrole-2-carboxamide] | 0.005 to 0.05 | > 0.2 | 0.005 to 0.05 | 0.1 to 1 | 0.1 to 0.5
3 | O=C(Nc1ccccc1)c1cc(-c2nc(N[C@H]3CCCNC3)ncc2C(F)(F)F)c[nH]1 [CDK7_538, N-phenyl-4-(2-{[(3S)-piperidin-3-yl]amino}-5-(trifluoromethyl)pyrimidin-4-yl)-1H-pyrrole-2-carboxamide] | 0.005 to 0.05 | > 0.2 | 0.05 to 0.2 | 0.1 to 1 | 0.5 to 2
4 | Nc1ccccc1Nc1nc(N[C@H]2CCCNC2)ncc1C(F)(F)F [CDK7_550, N4-(2-aminophenyl)-N2-[(3S)-piperidin-3-yl]-5-(trifluoromethyl) pyrimidine-2,4-diamine] | 0.05 to 0.2 | > 0.2 |  | > 1 | > 2
5 | FC(F)(F)c1cnc(N[C@H]2CCCNC2)nc1Oc1ccccc1 [CDK7_754, 4-phenoxy-N-[(3S)-piperidin-3-yl]-5-(trifluoromethyl) pyrimidin-2-amine] | 0.005 to 0.05 | > 0.2 |  | > 1 | > 2
6 | FC(F)(F)c1cnc(N[C@H]2CCCNC2)nc1Cc1ccccc1 [CDK7_766, 4-benzyl-N-[(3S)-piperidin-3-yl]-5-(trifluoromethyl) pyrimidin-2-amine] | 0.05 to 0.2 | > 0.2 |  | > 1 | > 2
7 | FC(F)(F)c1cnc(N[C@H]2CCCNC2)nc1-n1ccc2ccccc21 [CDK7_809, 4-(1H-indol-1-yl)-N-[(3S)-piperidin-3-yl]-5-(trifluoromethyl)py-rimidin-2-amine] | 0.005 to 0.05 | > 0.2 |  | > 1 | > 2
8 | FC(F)(F)c1cnc(N[C@H]2CCCNC2)nc1-n1cnc2ccccc21 [CDK7_810, 4-(1H-1,3-benzodiazol-1-yl)-N-[(3S)-piperidin-3-yl]-5-(trifluoromethyl)py-rimidin-2-amine] | 0.005 to 0.05 | > 0.2 |  | > 1 | > 2
9 | FC(F)(F)c1cnc(N[C@H]2CCCNC2)nc1Oc1cccc2c1NCCC2 [CDK7_829, N-[(3S)-piperidin-3-yl]-4-(1,2,3,4-tetrahydroquin-olin-8-yloxy)-5-(trifluoromethyl) pyrimidin-2-amine] |  |  |  | > 1 | > 2
10 | FC(F)(F)c1cnc(N[C@H]2CCCNC2)nc1Oc1cccc2cccnc12 [CDK7_830, N-[(3S)-piperidin-3-yl]-4-(quinolin-8-yloxy)-5-(trifluoromethyl) pyrimidin-2-amine] |  |  |  | > 1 | > 2
11 | CN1CCc2c(-c3nc(N[C@H]4CCCNC4)ncc3C(F)(F)F)c[nH]c2C1=O [CDK7_843, 6-methyl-3-(2-{[(3S)-piperidin-3-yl]amino}-5-(trifluoromethyl)pyrimidin-4-yl)-1H,4H,5H,6H, 7H-pyrrolo[2,3-c]pyridin-7-one] | 0.005 to 0.05 | > 0.2 | > 0.2 |  | 
12 | CP(C)(=O)c1cccc(Nc2nc(N[C@H]3CCCNC3)ncc2C(F)(F)F)c1 [CDK7_888, N4-[3-(dimethylphos-phoryl)phenyl]-N2-[(3S)-piperidin-3-yl]-5-(trifluoromethyl) pyrimidine-2,4-diamine] | 0.005 to 0.05 | > 0.2 |  | > 1 | > 2
13 | NS(=O)(=O)c1cccc(Nc2nc(N[C@H]3CCCNC3)ncc2C(F)(F)F)c1 [CDK7_891, 3-[(2-{[(3S)-piperidin-3-yl]amino}-5-(trifluoromethyl)pyrimidin-4-yl)amino] benzene-1-sulfonamide] | 0.005 to 0.05 | > 0.2 |  | 0.1 to 1 | 
14 | CP(C)(=O)c1ccccc1Oc1nc(N[C@H]2CCCNC2)ncc1C(F)(F)F [CDK7_897, 4-[2-(dimethylphos-phoryl)phenoxy]-N-[(3S)-piperidin-3-yl]-5-(trifluoromethyl) pyrimidin-2-amine] |  | > 0.2 |  |  | > 2
15 | CC(=O)Nc1ccccc1Nc1nc(N[C@H]2CCCNC2)ncc1C(F)(F)F [CDK7_898, N-{2-[(2-{[(3S)-piperidin-3-yl]amino}-5-(trifluoromethyl)pyrimidin-4-yl)amino]phenyl} acetamide] | 0.005 to 0.05 | > 0.2 |  | 0.1 to 1 | > 2
16 | O=C1CN(c2nc(N[C@H]3CCCNC3)ncc2C(F)(F)F)c2ccccc2N1 [CDK7_900, 4-(2-{[(3S)-piperidin-3-yl]amino}-5-(trifluoromethyl)pyrimidin-4-yl)-1,2,3,4-tetrahydroquin-oxazolin-2-one] |  |  |  |  | > 2
17 | O=c1[nH]cc(-c2nc(N[C@H]3CCCNC3)ncc2C(F)(F)F)c2ccccc12 [CDK7_921, 4-(2-{[(3S)-piperidin-3-yl]amino}-5-(trifluoromethyl)pyrimidin-4-yl)-1,2-dihydroisoquin-olin-1-one] | 0.005 to 0.05 |  |  |  | 
18 | CN(C)C(=O)c1c[nH]cc1-c1nc(N[C@H]2CCCNC2)ncc1C(F)(F)F [CDK7_991, N,N-dimethyl-4-(2-{[(3S)-piperidin-3-yl]amino}-5-(trifluoromethyl)py-rimidin-4-yl)-1H-pyrrole-3-carboxamide] | > 0.2 |  |  |  | 
19 | CN1CCC[C@H](Nc2ncc(C(F)(F)F)c(-c3c[nH]c(C(=O)N(C)C)c3)n2)C1 [CDK7_1019] | 0.005 to 0.05 | > 0.2 | > 0.2 |  | > 2
20 | Cn1c(-c2cc(-c3nc(N[C@H]4CCCNC4)ncc3C(F)(F)F)c[nH]2)nc2ccccc21 [CDK7_1124, 4-[5-(1-methyl-1H-1,3-benzodiazol-2-yl)-1H-pyrrol-3-yl]-N-[(3S)-piperidin-3-yl]-5-(trifluoromethyl)py-rimidin-2-amine] | 0.005 to 0.05 | > 0.2 | > 0.2 |  | > 2
